# Entries after “also recorded” stand apart in the source; their conditions may differ.
# B1: TAT-HA-Uch-L1(S18Y): mutant TAT-HA-Uch-L1 construct, S18Y (ligase site), made by site-directed mutagenesis (protein, UniProt P09936 1-220, looked up, variant S18Y)
# Ubiquitin carboxyl-terminal …: MQLKPMEINPEMLNKVLYRLGVAGQWRFVDVLGLEEESLGSVPAPACALLLLFPLTAQHENFRKKQIEELKGQEVSPKVYFMKQTIGNSCGTIGLIHAVANNQDKLGFEDGSVLKQFLSETEKMSPEDRAKCFEKNEAIQAAHDAVAQEGQCRVDDKVNFHFILFNNVDGHLYELDGRMPFPVNHGASSEDTLLKDAAKVCREFTEREQGEVRFSAVALC
# modifications: fused to HIV TAT transduction peptide and HA tag
# notes: mutant TAT-HA-Uch-L1 construct, S18Y (ligase site), made by site-directed mutagenesis
# Assays:
# PKA [1] = experiment: PKA kinase activity in hippocampal cultures; format: cell-based, rat
# Description: PKA Kinase Activity Measurement. Primary hippocampal neurons from E18 rats were dissociated and cultured as described (Vitolo et al, Proc Natl Acad Sci USA 99:13217-13221 (2002)). […]
# Hippocampal slices were lysed with RIPA lysis buffer and homogenized by Dounce homogenizer on ice. 5 DIV primary cultures were treated for 24 hrs and cells were lysed with RIPA lysis buffer.
# Levels of intracellular PKA kinase activity were measured by PKA Kinase Activity Assay Kit (Stressxpress) according to manufacturer's instructions.
# (§1) Preparation of Cell Cultures. Hippocampal cell cultures were prepared as previously described (Vitolo et al., 2002). In cell culture experiments fetuses at embryonic day 18 from timed pregnant Sprague-Dawley rats (Taconic Farms) were used. Fetuses were sacrificed and the hippocampi removed. Neurons were then dissociated, plated on 6 well-plates coated with poly-L-lysine and maintained in a defined serum-free medium containing minimum essential medium supplemented with N-2, glucose, albumin, pyruvic acid, antibiotics and antimycotics. […] 5 DIV cells were used for the experiments.
# [2] = tested on: SY5Y neuroblastoma cells transfected with a degron CL1-GFP expression vector; experiment: Proteasome reporter assay (GFP^u); format: cell-based, human; conditions: substance alone
# Description: Proteasome reporter assays. In this cell line, human neuroblastoma SH-SY5Y cells were permanently transfected with reporter construct consisting of green fluorescent protein (GFP) conjugated at its C-terminus to a short degron sequence (CL-1) (Gilon et al., 1998). […] The SY5Y-GFP^u cells were grown in 1×DMEM (Invitrogen) supplemented with 15% fetal bovine serum (JRH), 1× penicillin/streptomycin (Gibco). After indicated treatments, GFP^u concentrations were assayed by densitometric analysis of immunoblots of total protein extracts (10 ug/lane) using monoclonal GFP antibodies (Santa Cruz Biotechnology) and visualized with HRP-conjugated secondary antibodies and ECL (Pierce). Loading equalization was normalized by probing blots with anti-ERK antibodies (Santa Cruz Biotechnology).
# [3] = tested on: CA1-LTP in hippocampal slices; experiment: CA1-LTP in hippocampal slices (theta-burst); format: cell-based, mouse; conditions: for baseline transmission in slices without tetanic stimulation: non-tetanized slices; for rescue of LTP at different concentrations, S18Y versus TAT-HA-Uch-L1 (words): 1 hr pre-treatment, then Aβ 200 nM 20 min, as low as 5 nM; for Aβ-induced impairment of CA1-LTP (words): fusion protein 20 nM 1 hr, then plus Aβ 200 nM 20 min
# [4] = tested on: BST at the Schaffer collateral/CA1 connection of hippocampal slices; experiment: Basal synaptic transmission (BST) in hippocampal slices; format: cell-based, mouse
# [5] = tested on: PPF in hippocampal slices; experiment: Paired pulse facilitation (PPF) in hippocampal slices; format: cell-based, mouse
# PKA [6] = experiment: PKA kinase activity in hippocampal slices; format: cell-based, mouse
# monoubiquitin = experiment: Monoubiquitin levels (quantitative Western blot); format: cell-based, mouse
# Description: (§2) Western Blotting: Protein levels were assessed using standard procedures. Protein extraction was performed using buffer with and without detergent. For the extraction of protein using detergent, hippocampal tissues and cultured hippocampal neurons (5 DIV) were homogenized in RIPA buffer (50 mM Tris-HCl pH 7.4, 1% Triton X-100, 1% sodium deoxycholate, 0.1% SDS, 150 mM sodium chloride, 10 mM sodium fluoride, 30 mM sodium pyrophosphate, 50 mM sodium orthovanadate) containing 1× complete protease inhibitor (Roche) and 1 mM phenylmethylsulfonyl fluoride (PMSF). For extraction of proteins without detergent, hippocampal extracts were homogenized with disposable dounce homogenizers in buffer A, containing 10 mM HEPES pH 7.3, 300 mM sucrose, protease 1× complete protease inhibitor (Roche) and PMSF. After centrifugation at 10,000×g supernatant proteins were resolved on a 8% or 4-20% gradient Tris-Glycine gel, transferred onto PVDF or nitrocellulose membrane and blocked in 5% skim milk in PBS-Tween 0.1% (PBS-T). Membranes were probed with primary antibodies, and after washing with PBS-T incubated with an appropriate HRP-conjugated secondary antibody. The following antibodies were used: mouse monoclonal anti-ubiquitin (Chemicon), rabbit polyclonal anti-pCREB (Upstate Biotech.), rabbit polyclonal anti-PKA-RIIα (Santa Cruz Biotech. Inc), mouse monoclonal anti-Uch-L1 (Novocastra), monoclonal mouse anti-HA (Santa Cruz Biotech. Inc), and anti-PKA IIα. Detection was performed using HRP-conjugated secondary antibodies (Pierce, Rockford, Ill.). To control loading and transfer, protein immunoreactivities were normalized against total extracellular signal-regulated protein kinases (ERK1/2) levels with a rabbit analyzed using a rabbit polyclonal anti-ERK1/2 antibody (Cell Signaling Technology, Inc). NIH IMAGE was used to analyze the scanned blots and quantify the intensity of the protein signals.
# phospho-CREB at Ser-133 = experiment: Phospho-CREB (Ser-133) Western blot in hippocampal cultures; format: cell-based, rat; conditions: for glutamate-induced CREB phosphorylation (words): 3 μM Aβ 24 hrs alone; for effect of Aβ on glutamate-induced CREB phosphorylation (words): fusion protein 100 nM, 3 μM Aβ 24 hrs, 50 μM glutamate 15 min
# Description: as §2, §1
# Uch-L1 = experiment: Hydrolase (ubiquitin-AMC) assay on hippocampal slices; format: cell-based, mouse; conditions: 200 nM Aβ alone
# Description: Slice preparation. Mice were decapitated and their hippocampi removed. […] Slices were permitted to recover from cutting for at least 90 min. before recordings. For experiments with lactacystin, slices were perfused with the drug or vehicle for 2 to 4 hrs in a small volume (10 ml) chamber.
# Briefly, hippocampal tissue was treated with tissue protein extraction reagent (T-PER; Pierce) containing freshly added EDTA-free protease inhibitors. Homogenate was centrifuged at 10,000 rpm for 5 min. Protein concentration was measured in the supernatant using the BCA protein assay reagent. In some experiments hydrolysis was initiated by adding 10 μl of 20 nM Uch-L1 or Uch-L3 (Boston Biochem). The hydrolase assay was performed using fluorogenic ubiquitin-7-amino-4-methylcoumarin (ubiquitin-AMC) (Boston Biochem) as a substrate. The substrate was diluted in assay buffer (50 mM Tris-HCL, 0.5 mM EDTA, 5 mM dithiothreitol and 0.1 mg/ml ovalbumin, pH 7.6). Each reaction mixture containing 400 nM substrate and 100 μg enzyme sample was incubated for 5 min at room temperature. The reaction was monitored using a fluorescence spectrophotometer (CytoFluor Series 4000, ABI Inc) at 25° C. The free AMC fluorophore was excited at 380 nm and measured at 460 nm. […] In some experiments, hydrolysis was also measured on the soluble and insoluble fractions (FIG. 28D). In a group of experiments hydrolysis was measured by mixing ubiquitin-AMC with 20 nM TAT fusion proteins (FIG. 27C). In other experiments the substrate was Nedd8-AMC (Boston Biochem).
# PKA RIIα = PKA RIIα levels in hippocampal slices (Western blot); format: cell-based, mouse; conditions: for PKA RIIα levels (words): Aβ 200 nM 20 min alone
# Description: as §2
# phospho-CREB = experiment: Phospho-CREB immunofluorescence in hippocampal slices; format: cell-based, mouse; conditions: for tetanus-induced increase in phospho-CREB (words): Aβ alone
# cAMP = experiment: Intracellular cAMP enzyme immunoassay; format: cell-based, rat; conditions: Aβ 3 μM 24 hrs alone
# Description: Intracellular cAMP Enzyme Immunoassay. Hippocampal neurons from E18 rats were dissociated and plated on poly-L-lysine coated 6-well plates in minimum essential medium supplemented with N-2, glucose, albumin, pyruvic acid, antibiotics and antimycotics. […] After 24 hours, cell lysates were obtained and intracellular cAMP levels were measured using cAMP Biotrak Enzymeimmunoassay (EIA) System (Amersham) in accordance with manufacturer's instructions.
# [7] = lactacystin 10 μM, 2 to 4 hour exposure
# [8] = prolonged exposure lactacystin 10 μM
molecule,measurement,setting,value
"CC(=O)N[C@@H](CSC(=O)[C@]1([C@@H](O)C(C)C)NC(=O)[C@H](C)[C@@H]1O)C(=O)O [lactacystin, reference compound]",beneficial effect of TAT-HA-Uch-L1 on PKA activity,PKA [1]; lactacystin 10 μM for 1 hr,blocked the beneficial effect
same,GFP^u levels,[2],much larger increase in GFP
same,LTP,"[3]; lactacystin 10 μM, 2-4 hrs",markedly reduced; also recorded: blocked
same,LTP,[3]; [7],approximately 50 % that of vehicle treated slices
same,LTP,"[3]; lactacystin 10 μM, 15 min",did not change; also recorded: does not affect; also recorded: did not affect CA1-LTP
same,baseline transmission in slices without tetanic stimulation,[3],did not affect baseline transmission
same,LTP at 60 min,[3]; [8],116.17±14.69%
same,LTP at 120 min,[3]; [8],119.25±12.82 % of baseline
same,BST,"[4]; lactacystin 10 μM, 2-4 hrs",markedly reduced; also recorded: strongly reduced
same,BST (slope of the input-output curve at 35 V),[4]; [7],approximately 50 % that of vehicle treated slices
same,BST,"[4]; lactacystin 10 μM, 15 min",did not change; also recorded: does not affect; also recorded: did not affect BST
same,BST at 35V stimulation,[4]; [8],0.93±0.06 mV/ms
same,PPF,"[5]; lactacystin 10 μM, 2-4 hrs",markedly reduced
same,PPF at 50 ms interval,[5]; [8],150.96±10.18%
same,PPF at 300 ms interval,[5]; [8],119.11±5.43%
same,PKA activity,"PKA [6]; lactacystin 10 μM 1 hr pretreatment, TAT-HA-Uch-L1 plus Aβ",74.9±3.21%
Aβ: oligomeric Aβ42 prepared from lyophilized synthetic peptide (American Peptide) [reference compound],PKA activity in cultures,PKA [1]; 3 μM Aβ for 24 hrs alone,reduced
same,GFP^u levels,[2],increase in GFP levels
same,LTP,[3]; Aβ 200 nM alone,markedly reduced; also recorded: LTP was reduced
same,LTP at 120 min after tetanus,"[3]; oligomeric Aβ 200 nM, 20 min perfusion",136.34±13.40 % of baseline slope
same,decrease of monoubiquitin levels,monoubiquitin; oligomeric Aβ42 200 nM for 20 min,~70%
same,monoubiquitin levels,monoubiquitin; substance alone,reduced
same,glutamate-induced CREB phosphorylation (words),phospho-CREB at Ser-133,annulled the increase in phospho-CREB
same,glutamate-induced CREB phosphorylation (words),phospho-CREB at Ser-133; listed as Aβ42,strong decrease in CREB phosphorylation
same,ubiquitin-c-terminal hydrolase enzymatic activity,Uch-L1,72.36±6.81 % of TAT-HA treated WT slices
same,PKA RIIα levels (words),PKA RIIα,increase in PKA RIIα levels
same,PKA RIIα levels (words),PKA RIIα; listed as Aβ42,marked increase in RIIα
same,PKA RIIα levels (words),PKA RIIα; listed as amyloid-beta,increased
same,RIIα levels,PKA RIIα; Aβ42 200 nM for 20 minutes,163.68±10.51 % of TAT-HA control slices
same,tetanus-induced increase in phospho-CREB (words),phospho-CREB,blocks the increase in phosphorylated CREB; also recorded: blocked the increase in phospho-CREB; also recorded: blockade of the increase in CA1-phospho-CREB
same,tetanus-induced increase in phospho-CREB (words),phospho-CREB; listed as Aβ42,blocked the increase in CA1 immunofluorescence
same,phospho-CREB immunofluorescence without theta-burst,phospho-CREB; no tetanus,did not increase immunofluorescence; also recorded: did not modify immunofluorescence; also recorded: neither Aβ42 alone nor TAT-HA-Uch-L1 alone nor TAT-HA-Uch-L1 paired with Aβ42 induced changes
same,BST in WT slices (words),"[4]; fusion protein 20 nM 1 hr or Aβ 200 nM 20 min, alone",did not reveal any significant difference among treatments; also recorded: does not affect CA1-BST
same,PKA activity in slices,PKA [6]; 200 nM Aβ for 20 min alone,reduced
same,PKA activity,PKA [6]; 200 nM Aβ for 20 minutes,71.75±2.21 % of control
same,cAMP levels,cAMP,reduced cAMP levels
"CCCCCCOC(=O)[C@]1(O)C[C@@H]2O[C@@]1(C)n1c3ccccc3c3c4c(c5c6ccccc6n2c5c31)C(=O)NC4 [KT5720, reference compound]",reversal of LTP reduction by Uch-L1 fusion protein,"[3]; KT5720 1 μM, Uch-L1 fusion protein 20 nM, Aβ 200 nM",blocked
B1,"rescue of LTP at different concentrations, S18Y versus TAT-HA-Uch-L1 (words)",[3],no difference between the two forms
same,"rescue of LTP at different concentrations, S18Y versus TAT-HA-Uch-L1 (words)",[3]; listed as TAT-HA-Uch-L1 (S18Y),No difference was detected
same,Aβ-induced impairment of CA1-LTP (words),[3],protected; also recorded: completely reversed
same,Aβ-induced impairment of CA1-LTP (words),[3]; listed as TAT-HA-Uch-L1 (S18Y),significantly enhanced the amplitude of LTP
same,LTP in slices not treated with Aβ (words),"[3]; fusion protein 20 nM, 1 hr, WT slices, 3 theta-burst trains",did not affect the amounts of potentiation
same,baseline transmission in slices without tetanic stimulation,[3],Neither TAT-HA-Uch-L1(C90S) nor TAT-HA-Uch-L1(S18Y) affected baseline; also recorded: nor affected basal transmission
same,effect of Aβ on glutamate-induced CREB phosphorylation (words),phospho-CREB at Ser-133,totally blocked the effect of Aβ on CREB phosphorylation; also recorded: completely opposed
same,effect of Aβ on glutamate-induced CREB phosphorylation (words),phospho-CREB at Ser-133; listed as TAT-HA-Uch-L1 (S18Y),completely opposed

# From patent US7947279B2, “Peptide having hydrolase activity” (The Trustees of Columbia University in the City of New York, priority 2005, dated 2011)
